Data reported in patent US11427615B2, “Peptide compound and application thereof, and composition containing peptide compound” (XDCEXPLORER (SHANGHAI) CO., LTD., priority 2017, dated 2022).
Non-standard residues stand in square brackets, D forms with d. Residues, ends and D or L forms follow the SMILES beside them. *: point of attachment. X1 = CCCCCCCCCCCC(=O)NCCOCCOCCOCCOCCOCCSC1CC(=O)N(CCCC(=O)*)C1=O; X2 = CCCCCCCCCCCC(=O)NCCOCCOCCOCCOCCOCCn1cc(CC(=O)*)nn1; X5 = CCCCCCCCCCCC(=O)NCCOCCOCCOCCOCCOCCSSCCCC(=O)*; dPhe(2,4-Cl2) = N[C@H](Cc1ccc(Cl)cc1Cl)C(=O)O; Oic = O=C(O)[C@@H]1C[C@@H]2CCCC[C@@H]2N1; PEG8 = NCCOCCOCCOCCOCCOCCOCCOCCOCCC(=O)O; Pro(4,4-F2) = O=C(O)[C@@H]1CC(F)(F)CN1; Arg(Me) = CNC(=N)NCCC[C@H](N)C(=O)O; Palmitoyl = CCCCCCCCCCCCCCCC(=O)*; Hyp = O=C(O)[C@@H]1C[C@@H](O)CN1; AllylGly = C=CC[C@H](N)C(=O)O; PEG4 = NCCOCCOCCOCCOCCC(=O)O; Lauroyl = CCCCCCCCCCCC(=O)*; Ac6c = NC1(C(=O)O)CCCCC1; azaGly = NNC(=O)O

How the values were obtained:
[1] = Plasma stability, LC-MS/MS; format: in vitro ADME; settings: rat plasma, 37° C., final concentration 500 ng/ml, time points 0 minutes, 1, 2 and 4 hours; calculated half-life; read-out: Rat plasma (T½ (h)) (converted)
Experimental: Effect Embodiment 2 Experimental Data on Plasma Stability of Some Compounds
1. Preparation of 50 mM Phosphate Buffer:
The 5.750 g Na2HPO4, 1.141 g NaH2PO4. and 4.095 g NaCl (Shanghai Titan) weighed was dissolved in 1000 mL ultrapure water and the pH was adjusted to 7.4 to give 50 mM phosphate buffer containing 70 mM NaCl. The prepared phosphoric acid buffer solution was stored in the refrigerator at 4° C. and was valid for one week.
2. Preparation of compound stock solution:
1). 5 mg/mL of test compound: 5 mg of compound was weighted and dissolved in 1 mL of DMSO.
2). 20 mM control: 2.728 mg of Fuka was dissolved in 0.5 mL of DMSO. 3.878 mg of benzalkonium bromide was dissolved in 0.5 mL of DMSO (Amresco).
3. Preparation of experimental plasma:
The frozen plasma (human: Shanghai wise chemistry; Rats and mice: Shanghai Sciple-Bikai; Dogs and monkeys: Suzhou Xishan Zhongke) were taken out of the −80° C. refrigerator, immediately placed in a 37° C. water bath, slightly shaken to melt it, then the thawed plasma was poured into a centrifuge tube, centrifuged at 3000 rpm for 8 min, and the supernatant was taken for experiments. The pH value of plasma was detected by a pH Meter & Sensor (METTLER TOLEDO). Only plasma with a pH value between 7.4 and 8 was used in the experiment. The plasma was placed on an ice bath for later use.
4. Preparation of administration solution:
1). 125 µg/ml test compound solution: 5 μL of 5 mg/mL test compound (see step 2) was added into 195 μL DMSO; 500 μM control solution: 20 mM control stock solution (see step 2) was added to 195 μL DMSO.
2). 0.5% BSA phosphate buffer solution: 0.05 g BSA was added to 10 mL phosphate buffer solution (see step 1);
3). 5 µg/ml of test compound administration solution: 40 μL of 125 μg/mL of test compound solution was added into 960 μL 0.5% BSA phosphate buffer solution, stirred and mixed evenly, and the administration solution was preheated in a 37° C. water bath for 5 minutes.
20 μM reference substance administration solution: 40 μL of 500 μM reference substance administration solution was added into 960 μL 0.5% BSA phosphate buffer solution, stirred and mixed evenly, and the administration solution was preheated in a 37° C. water bath for 5 minutes.
5. 10 μL of 5 μg/mL of the test compound and 20 μM of the control substance administration solution were respectively added to the wells set at different time points (0 minutes, 1 hour, 2 hours and 4 hours) on the 96-well plate, and the number of duplicate samples was 3.
6. 500 μL of ACN (IS) containing 5% FA was added to the well set at 0 minute hour, then 90 μL of plasma was added, after mixing, sealing film was pasted and placed at 4° C. (number of duplicate samples was 3).
7. 90 μL of plasma was added to the wells with set time points of 1 hour, 2 hours and 4 hours respectively, the number of duplicate samples was 3, and timing was started (the final concentration of the test compound was 500 ng/ml; The control was 2 μM).
9. All samples (0 minutes, 1 hour, 2 hours and 4 hours) at different time points on a 96-well plate were shaken for 10 minutes at 600 rpm/min on an oscillator (MTS 2/4, IKA), and then the samples were centrifuged for 15 minutes at 5594×g in a centrifuge (Multifuge×3R, thermo Fisher).
10. 150 μL of supernatant was taken from the centrifuged sample and sent to LC-MS/MS for analysis (conventional polypeptide LC-MS/MS analysis method).

[2] = molecular target: T1, human kiss1 receptor (GPR54) (Homo sapiens, UniProt Q969F8); test: Kiss1 receptor (GPR54) binding activity of agonists, FRET detection in NFAT-bla CHO-K1 cells; format: cell-based; settings: GPR54; measured according to the method of effect Embodiment 1; preliminary data; read-out: Preliminary measurement data (GPR54) EC50
T1 construct: host or cells: NFAT-bla CHO-K1 cells (Chinese hamster ovary), purchased recombinant cell line
T1 sequence (Q969F8 whole entry): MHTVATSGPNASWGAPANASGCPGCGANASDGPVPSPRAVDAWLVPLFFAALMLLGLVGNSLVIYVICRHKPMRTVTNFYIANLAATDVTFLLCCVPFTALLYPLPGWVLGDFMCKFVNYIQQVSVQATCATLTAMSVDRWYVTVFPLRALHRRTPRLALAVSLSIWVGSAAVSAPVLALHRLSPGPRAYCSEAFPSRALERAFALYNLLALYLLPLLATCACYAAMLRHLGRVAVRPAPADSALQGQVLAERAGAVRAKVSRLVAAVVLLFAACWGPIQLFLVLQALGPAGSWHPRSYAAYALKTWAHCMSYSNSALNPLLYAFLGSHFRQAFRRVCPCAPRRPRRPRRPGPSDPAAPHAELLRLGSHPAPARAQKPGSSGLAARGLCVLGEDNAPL

Row | Structure (SMILES) | half-life at 500 ng/ml [1] [h] | EC50 [2] [nM]
1 | CCCCCCCCCCCC(=O)NCCOCCOCCOCCOCCOCCn1cc(CC(=O)N[C@H](Cc2ccc(O)cc2)C(=O)N2C[C@H](O)C[C@H]2C(=O)N[C@@H](CC(N)=O)C(=O)N[C@H](C(=O)N[C@@H](Cc2ccccc2)C(=O)NNC(=O)N[C@@H](CC(C)C)C(=O)N[C@@H](CCCNC(=N)NC)C(=O)N[C@@H](Cc2c[nH]c3ccccc23)C(N)=O)[C@@H](C)O)nn1 [YA-326, Dodecanoyl-NH-PEG5-1,2,3-Triazole-Cyclic-Butanoyl-(D-Tyr)-Hyp-Asn-Thr-Phe-Azag-Leu-Arg(Me)-Trp-NH2] (X2-[dY][Hyp]NTF[azaGly]L[Arg(Me)]W-NH2) | 4.97 | –
2 | CNC(=N)NCCC[C@H](NC(=O)[C@H](CC(C)C)NC(=O)C1(NC(=O)[C@H](Cc2ccccc2)NC(=O)[C@@H](NC(=O)[C@H](CC(N)=O)NC(=O)[C@@H]2C[C@@H](O)CN2C(=O)[C@@H](Cc2ccc(O)cc2)NC(C)=O)[C@@H](C)O)CCCCC1)C(=O)N[C@@H](Cc1c[nH]c2ccccc12)C(N)=O [YA-175, Ac-D-Tyr-Hyp-Asn-Thr-Phe-A6c-Leu-Arg(Me)-Trp-NH2] (Ac-[dY][Hyp]NTF[Ac6c]L[Arg(Me)]W-NH2) | 2.05 | 0.132
3 | CNC(=N)NCCC[C@H](NC(=O)[C@H](CC(C)C)NC(=O)NNC(=O)[C@H](Cc1ccccc1)NC(=O)[C@@H](NC(=O)[C@H](CC(N)=O)NC(=O)C1(NC(=O)[C@@H](Cc2ccc(O)cc2)NC(C)=O)CCCCC1)[C@@H](C)O)C(=O)N[C@@H](Cc1c[nH]c2ccccc12)C(N)=O [YA-172, Ac-D-Tyr-A6c-Asn-Thr-Phe-azaGly-Leu-Arg(Me)-Trp-NH2] (Ac-[dY][Ac6c]NTF[azaGly]L[Arg(Me)]W-NH2) | 9.42 | –
4 | CCCCCCCCCCCC(=O)NCCOCCOCCOCCOCCC(=O)NCCOCCOCCOCCOCCC(=O)N[C@H](Cc1ccc(O)cc1)C(=O)N1C[C@H](O)C[C@H]1C(=O)N[C@@H](CC(N)=O)C(=O)N[C@H](C(=O)N[C@@H](Cc1ccccc1)C(=O)NNC(=O)N[C@@H](CC(C)C)C(=O)N[C@@H](CCCNC(=N)NC)C(=O)N[C@@H](Cc1c[nH]c2ccccc12)C(N)=O)[C@@H](C)O [YA-296, Dodecanoyl-PEG4-PEG4-D-Tyr-Hyp-Asn-Thr-Phe-azaGly-Leu-Arg(Me)-Trp-NH2] ({Lauroyl-PEG4-PEG4}-[dY][Hyp]NTF[azaGly]L[Arg(Me)]W-NH2) | 2.73 | 0.011
5 | CCCCCCCCCCCCCCCC(=O)NCCOCCOCCOCCOCCOCCOCCOCCOCCC(=O)NCC(=O)NCC(=O)N[C@H](Cc1ccc(O)cc1)C(=O)N1C[C@H](O)C[C@H]1C(=O)N[C@@H](CC(N)=O)C(=O)N[C@H](C(=O)N[C@@H](Cc1ccccc1)C(=O)NC1(C(=O)N[C@@H](CC(C)C)C(=O)N[C@@H](CCCNC(=N)NC)C(=O)N[C@@H](Cc2c[nH]c3ccccc23)C(N)=O)CCCCC1)[C@@H](C)O [YA-264, Palm-PEG 8-Gly-Gly-D-Tyr-Hyp-Asn-Thr-Phe-A6C-Leu-Arg(Me)-Trp-NH2] ({Palmitoyl-PEG8}-GG[dY][Hyp]NTF[Ac6c]L[Arg(Me)]W-NH2) | 13 | 0.029
6 | CNC(=N)NCCC[C@H](NC(=O)[C@H](CC(C)C)NC(=O)NNC(=O)[C@H](Cc1ccccc1)NC(=O)[C@@H](NC(=O)[C@H](CC(N)=O)NC(=O)[C@@H]1C[C@@H]2CCCC[C@@H]2N1C(=O)[C@@H](Cc1ccc(O)cc1)NC(C)=O)[C@@H](C)O)C(=O)N[C@@H](Cc1c[nH]c2ccccc12)C(N)=O [YA-230, Ac-D-Tyr-Oic-Asn-Thr-Phe-azaGly-Leu-Arg(Me)-Trp-NH2] (Ac-[dY][Oic]NTF[azaGly]L[Arg(Me)]W-NH2) | 3.64 | 0.04
7 | CNC(=N)NCCC[C@H](NC(=O)[C@H](CC(C)C)NC(=O)NNC(=O)[C@H](Cc1ccccc1)NC(=O)[C@@H](NC(=O)[C@H](CC(N)=O)NC(=O)[C@@H]1CC(F)(F)CN1C(=O)[C@@H](Cc1ccc(Cl)cc1Cl)NC(C)=O)[C@@H](C)O)C(=O)N[C@@H](Cc1c[nH]c2ccccc12)C(N)=O [YA-180, Ac-[D-Phe(2,4-DiCl)]-Pro(diF)-Asn-Thr-Phe-azaGly-Leu-Arg(Me)-Trp-NH2] (Ac-[dPhe(2,4-Cl2)][Pro(4,4-F2)]NTF[azaGly]L[Arg(Me)]W-NH2) | 9.63 | –

Results, then the compound that gave them:

Row | half-life at 500 ng/ml [1] [h] | EC50 [2] [nM] | Structure (SMILES)
8 | 79.9 | 0.006 | C=CC[C@H](NC(=O)[C@H](Cc1ccccc1)NC(=O)[C@@H](NC(=O)[C@H](CC(N)=O)NC(=O)[C@@H]1C[C@@H](O)CN1C(=O)[C@@H](Cc1ccc(O)cc1)NC(=O)CCOCCOCCOCCOCCOCCOCCOCCOCCNC(=O)CCCCCCCCCCCCCCC)[C@@H](C)O)C(=O)N[C@@H](CC(C)C)C(=O)N[C@@H](CCCNC(=N)NC)C(=O)N[C@@H](Cc1c[nH]c2ccccc12)C(N)=O [YA-360, Palm-PEG8-Gly-Gly-(D-Tyr)-Hyp-Asn-Thr-Phe-A1g-Leu-Arg(Me)-Trp-NH2] ({Palmitoyl-PEG8}-[dY][Hyp]NTF[AllylGly]L[Arg(Me)]W-NH2)
9 | 0.29 | 0.007 | CCCCCCCCCCCC(=O)NCCOCCOCCOCCOCCOCCSSCCCC(=O)N[C@H](Cc1ccc(O)cc1)C(=O)N1C[C@H](O)C[C@H]1C(=O)N[C@@H](CC(N)=O)C(=O)N[C@H](C(=O)N[C@@H](Cc1ccccc1)C(=O)NNC(=O)N[C@@H](CC(C)C)C(=O)N[C@@H](CCCNC(=N)NC)C(=O)N[C@@H](Cc1c[nH]c2ccccc12)C(N)=O)[C@@H](C)O [YA-324, Dodecanoyl-(NH-PEG5-CH2CH2S)-(4-thiol-butanoyl)-(D-Tyr)-Hyp-Asn-Thr-Phe-azaG-Leu-Arg(Me)-Trp-NH2] (X5-[dY][Hyp]NTF[azaGly]L[Arg(Me)]W-NH2)
10 | 12.7 | 0.016 | CCCCCCCCCCCCCCCC(=O)NCCOCCOCCOCCOCCOCCOCCOCCOCCC(=O)N[C@H](Cc1ccc(O)cc1)C(=O)N1C[C@H](O)C[C@H]1C(=O)N[C@@H](CC(N)=O)C(=O)N[C@H](C(=O)N[C@@H](Cc1ccccc1)C(=O)NNC(=O)N[C@@H](CC(C)C)C(=O)N[C@@H](CCCNC(=N)NC)C(=O)N[C@@H](Cc1c[nH]c2ccccc12)C(N)=O)[C@@H](C)O [YA-298, Palm-PEG8-D-Tyr-Hyp-Asn-Thr-Phe-azaGly-Leu-Arg(Me)-Trp-NH2] ({Palmitoyl-PEG8}-[dY][Hyp]NTF[azaGly]L[Arg(Me)]W-NH2)
11 | 0.22 | – | C=CC[C@H](NC(=O)[C@H](Cc1ccccc1)NC(=O)[C@@H](NC(=O)[C@H](CC(N)=O)NC(=O)[C@@H]1C[C@@H](O)CN1C(=O)[C@@H](Cc1ccc(O)cc1)NC(C)=O)[C@@H](C)O)C(=O)N[C@@H](CC(C)C)C(=O)N[C@@H](CCCNC(=N)NC)C(=O)N[C@@H](Cc1c[nH]c2ccccc12)C(N)=O [YA-350, Ac-(D-Tyr)-Hyp-Asn-Thr-Phe-Alg-Leu-Arg(Me)-Trp-NH2] (Ac-[dY][Hyp]NTF[AllylGly]L[Arg(Me)]W-NH2)
12 | 4.26 | – | CCCCCCCCCCCC(=O)NCCOCCOCCOCCOCCOCCSC1CC(=O)N(CCCC(=O)N[C@H](Cc2ccc(O)cc2)C(=O)N2C[C@H](O)C[C@H]2C(=O)N[C@@H](CC(N)=O)C(=O)N[C@H](C(=O)N[C@@H](Cc2ccccc2)C(=O)NNC(=O)N[C@@H](CC(C)C)C(=O)N[C@@H](CCCNC(=N)NC)C(=O)N[C@@H](Cc2c[nH]c3ccccc23)C(N)=O)[C@@H](C)O)C1=O (stereo partly drawn) [YA-325, Dodecanoy-(NH-PEG5-CH2CH2S)-(maleimide-butanoyl-)-(D-Tyr)-Hyp-Asn-Thr-Phe-azaG-Leu-Arg(Me)-Trp-NH2] (X1-[dY][Hyp]NTF[azaGly]L[Arg(Me)]W-NH2)
